According to ChEMBL document CHEMBL5356973 (J Med Chem, 2023):
Activity calls are given as the source filed them. No cut-off for these calls is given here.

Legend:
[1] = system: Mus musculus; assay: Antinociceptive activity in Kunming mouse assessed as changes in tail flick latency at 8.8 nmol/kg, sc pretreated with naloxone methiodide at 5 nmol, icv for 10 mins followed by compound addition and measured for 360 mins by tail-flick test; type: functional, organism-based
[2] = system: Mus musculus; assay: Antinociceptive activity in Kunming mouse assessed as changes in tail flick latency by measuring time duration of antinociceptive effect at 8.8 nmol/kg, sc by tail-flick test; type: functional
[3] = target: T1, Mu-type opioid receptor (Homo sapiens, UniProt P35372); assay: Agonist activity at MOR (unknown origin) transfected in CHO cells co-expressing Galphaq15 assessed as increase in calcium mobilization by Fluo-4AM dye based assay; type: functional, cell-based
T1 sequence (P35372 whole entry): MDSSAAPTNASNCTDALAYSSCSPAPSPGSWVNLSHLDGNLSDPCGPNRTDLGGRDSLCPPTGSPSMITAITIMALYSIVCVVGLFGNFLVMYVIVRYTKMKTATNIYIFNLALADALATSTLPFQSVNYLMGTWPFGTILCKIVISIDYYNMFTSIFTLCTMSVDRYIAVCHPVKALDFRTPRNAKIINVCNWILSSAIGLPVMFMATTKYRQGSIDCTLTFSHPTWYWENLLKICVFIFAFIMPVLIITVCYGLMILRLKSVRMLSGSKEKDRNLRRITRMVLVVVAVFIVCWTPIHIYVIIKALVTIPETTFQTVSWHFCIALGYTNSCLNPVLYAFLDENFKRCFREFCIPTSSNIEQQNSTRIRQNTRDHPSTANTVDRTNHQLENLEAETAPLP

[4] = system: Mus musculus; assay: Antinociceptive activity in Kunming mouse assessed as changes in tail flick latency by measuring maximal possible effect at 8.8 nmol/kg, sc measured after 30 mins by tail-flick test; type: functional; conditions: 0.5 h
[5] = system: Mus musculus; assay: Antinociceptive activity in Kunming mouse assessed as changes in tail flick latency by measuring maximal possible effect at 8.8 nmol/kg, sc measured after 120 mins by tail-flick test; type: functional; conditions: 2 h
[6] = target: T2, Neuropeptide FF receptor 2 (Homo sapiens, UniProt Q9Y5X5); assay: Agonist activity at NPFF2R (unknown origin) transfected in HEK293 cells co-expressing Galphaq15 assessed as increase in calcium mobilization by measuring maximal efficacy by Fluo-4AM dye based assay relative to control; type: functional, cell-based; conditions: filed as agonist
T2 sequence (Q9Y5X5 whole entry): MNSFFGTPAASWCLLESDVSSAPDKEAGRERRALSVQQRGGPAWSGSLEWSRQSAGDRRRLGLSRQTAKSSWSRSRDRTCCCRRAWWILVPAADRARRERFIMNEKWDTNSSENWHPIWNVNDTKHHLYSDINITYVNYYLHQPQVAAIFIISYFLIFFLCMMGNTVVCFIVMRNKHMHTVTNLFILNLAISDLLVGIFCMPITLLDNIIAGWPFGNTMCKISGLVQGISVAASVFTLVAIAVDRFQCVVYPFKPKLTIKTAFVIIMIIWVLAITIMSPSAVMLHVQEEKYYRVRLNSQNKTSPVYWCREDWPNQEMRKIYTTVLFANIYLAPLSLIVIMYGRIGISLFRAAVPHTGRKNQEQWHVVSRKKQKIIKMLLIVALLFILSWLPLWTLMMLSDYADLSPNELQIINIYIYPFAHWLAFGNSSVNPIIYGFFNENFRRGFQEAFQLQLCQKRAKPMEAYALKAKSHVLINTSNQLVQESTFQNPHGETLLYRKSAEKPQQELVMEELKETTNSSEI

[7] = system: Mus musculus; assay: Antinociceptive activity in Kunming mouse assessed as changes in tail flick latency by measuring maximal possible effect at 8.8 nmol/kg, sc measured after 60 mins by tail-flick test; type: functional; conditions: 1 h
[8] = target: T3, Delta-type opioid receptor (Homo sapiens, UniProt P41143); assay: Agonist activity at DOR (unknown origin) transfected in CHO cells co-expressing Galphaq15 assessed as increase in calcium mobilization by Fluo-4AM dye based assay; type: functional, cell-based
T3 sequence (P41143 whole entry): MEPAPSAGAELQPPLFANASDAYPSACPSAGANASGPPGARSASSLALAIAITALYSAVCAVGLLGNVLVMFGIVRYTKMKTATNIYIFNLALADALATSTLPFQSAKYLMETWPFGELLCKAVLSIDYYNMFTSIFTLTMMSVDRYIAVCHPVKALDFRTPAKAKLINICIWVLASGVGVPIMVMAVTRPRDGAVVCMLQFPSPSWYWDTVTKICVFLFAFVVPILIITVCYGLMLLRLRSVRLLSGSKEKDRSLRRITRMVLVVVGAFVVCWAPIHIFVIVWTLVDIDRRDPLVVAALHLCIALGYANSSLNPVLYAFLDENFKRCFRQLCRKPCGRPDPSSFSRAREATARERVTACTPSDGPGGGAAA

[9] = target: T4, Kappa-type opioid receptor (Homo sapiens, UniProt P41145); assay: Agonist activity at KOR (unknown origin) transfected in CHO cells co-expressing Galphaq15 assessed as increase in calcium mobilization by Fluo-4AM dye based assay; type: functional, cell-based
T4 sequence (P41145 whole entry): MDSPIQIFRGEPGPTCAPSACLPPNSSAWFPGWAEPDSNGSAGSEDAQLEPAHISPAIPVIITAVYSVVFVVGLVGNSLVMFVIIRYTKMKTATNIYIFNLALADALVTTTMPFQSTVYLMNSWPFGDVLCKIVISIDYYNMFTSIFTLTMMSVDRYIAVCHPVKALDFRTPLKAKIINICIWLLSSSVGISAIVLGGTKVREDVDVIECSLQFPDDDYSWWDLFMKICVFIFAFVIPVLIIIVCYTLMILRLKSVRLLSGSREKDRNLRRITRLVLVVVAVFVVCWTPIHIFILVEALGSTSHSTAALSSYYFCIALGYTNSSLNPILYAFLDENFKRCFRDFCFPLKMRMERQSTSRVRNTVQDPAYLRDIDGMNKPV

[10] = target: T2, Neuropeptide FF receptor 2; assay: Agonist activity at NPFF2R (unknown origin) transfected in HEK293 cells co-expressing Galphaq15 assessed as increase in calcium mobilization by Fluo-4AM dye based assay; type: functional, cell-based
[11] = Agonist activity at NPFF1R (unknown origin) transfected in CHO cells co-expressing Galphaq15 assessed as increase in calcium mobilization by measuring maximal efficacy by Fluo-4AM dye based assay relative to control; type: functional, cell-based; conditions: Homo sapiens, filed as agonist
[12] = system: Mus musculus; assay: Antinociceptive activity in Kunming mouse assessed as changes in tail flick latency by measuring maximal possible effect at 8.8 nmol/kg, sc measured after 20 mins by tail-flick test; type: functional
[13] = Metabolic stability in mouse brain homogenate assessed as degradation half life at 10 mM measured upto 480 mins by RP-HPLC analysis; type: ADME, tissue-based
[14] = target: T3, Delta-type opioid receptor; assay: Agonist activity at DOR (unknown origin) transfected in CHO cells co-expressing Galphaq15 assessed as increase in calcium mobilization by measuring maximal efficacy by Fluo-4AM dye based assay relative to control; type: functional, cell-based; conditions: filed as agonist
[15] = target: T1, Mu-type opioid receptor; assay: Agonist activity at MOR (unknown origin) transfected in CHO cells co-expressing Galphaq15 assessed as increase in calcium mobilization by measuring maximal efficacy by Fluo-4AM dye based assay relative to control; type: functional, cell-based; conditions: filed as agonist
[16] = Metabolic stability in mouse plasma assessed as degradation half life at 10 mM measured upto 480 mins by RP-HPLC analysis; type: ADME, cell-free
[17] = system: Mus musculus; assay: Antinociceptive activity in Kunming mouse assessed as changes in tail flick latency by measuring maximal possible effect at 8.8 nmol/kg, sc measured after 240 mins by tail-flick test; type: functional; conditions: 4 h
[18] = target: T4, Kappa-type opioid receptor; assay: Agonist activity at KOR (unknown origin) transfected in CHO cells co-expressing Galphaq15 assessed as increase in calcium mobilization by measuring maximal efficacy by Fluo-4AM dye based assay relative to control; type: functional, cell-based; conditions: filed as agonist
[19] = system: Mus musculus; assay: Antinociceptive activity in Kunming mouse assessed as changes in tail flick latency at 26.1 nmol/kg, sc pretreated with naloxone methiodide at 5 nmol, icv for 10 mins followed by compound addition and measured for 360 mins by tail-flick test; type: functional, organism-based
[20] = system: Mus musculus; assay: Antinociceptive activity in Kunming mouse assessed as changes in tail flick latency by measuring maximal possible effect at 26.1 nmol/kg, sc measured after 30 mins by tail-flick test; type: functional; conditions: 0.5 h
[21] = system: Mus musculus; assay: Antinociceptive activity in Kunming mouse assessed as changes in tail flick latency by measuring maximal possible effect at 26.1 nmol/kg, sc measured after 20 mins by tail-flick test; type: functional
[22] = system: Mus musculus; assay: Antinociceptive activity in Kunming mouse assessed as changes in tail flick latency by measuring maximal possible effect at 26.1 nmol/kg, sc measured after 60 mins by tail-flick test; type: functional; conditions: 1 h
[23] = system: Mus musculus; assay: Antinociceptive activity in Kunming mouse assessed as changes in tail flick latency by measuring maximal possible effect at 26.1 nmol/kg, sc measured after 120 mins by tail-flick test; type: functional; conditions: 2 h
[24] = system: Mus musculus; assay: Antinociceptive activity in Kunming mouse assessed as changes in tail flick latency by measuring time duration of antinociceptive effect at 26.1 nmol/kg, sc by tail-flick test; type: functional
[25] = system: Mus musculus; assay: Antinociceptive activity in Kunming mouse assessed as changes in tail flick latency by measuring maximal possible effect at 26.1 nmol/kg, sc measured after 240 mins by tail-flick test; type: functional; conditions: 4 h

| Compound | Activity [1] | Time [2] | EC50 [3] | MPE [4] | MPE [5] | Emax [6] | MPE [7] | EC50 [8] | EC50 [9] | EC50 [10] | Emax [11] | MPE [12] | half-life at 10000 µM [13] | Emax [14] | Emax [15] | half-life at 10000 µM [16] | MPE [17] | Emax [18] | Activity [19] | MPE [20] | other results |
| --- | --- | --- | --- | --- | --- | --- | --- | --- | --- | --- | --- | --- | --- | --- | --- | --- | --- | --- | --- | --- | --- |
| CN1C(=O)CNC(=O)[C@@H](N[C@@H](Cc2ccc(O)cc2)C(=O)O)C/C=C/CCCC[C@H](C(=O)N2CCC[C@H]2C(=O)N[C@@H](CCC(N)=O)C(=O)N[C@@H](CCCNC(=N)N)C(=O)N[C@@H](Cc2ccccc2)C(N)=O)NC(=O)[C@@H]1Cc1ccccc1 | inactive | 360 min | 2900 nM | 93.6% | 71.5% | 40.9% | 79% | 8920 nM | 1230 nM | 3760 nM | 124% | 92.8% | 1.47 h | 99.4% | 81% | 0.13 h | 41.6% | 56.1% | – | – | – |
| CN1C(=O)CNC(=O)[C@H](N[C@@H](Cc2ccc(O)cc2)C(=O)O)CCC/C=C/CC[C@@H](C(=O)N2CCC[C@H]2C(=O)N[C@@H](CCC(N)=O)C(=O)N[C@@H](CCCNC(=N)N)C(=O)N[C@@H](Cc2ccccc2)C(N)=O)NC(=O)[C@@H]1Cc1ccccc1 | inactive | 360 min | 7.6 nM | 96.5% | 74.2% | 118% | 72.1% | 23.9 nM | 273 nM | 3110 nM | 91.8% | 89.9% | 1.83 h | 98.2% | 102% | 0.537 h | 47.8% | 96.4% | – | – | – |
| CC(C)C[C@H](NC(=O)[C@@H](N)Cc1ccccc1)C(=O)N[C@@H](Cc1ccccc1)C(=O)N[C@@H](CCC(N)=O)C(=O)N1CCC[C@H]1C(=O)N[C@@H](CCC(N)=O)C(=O)N[C@@H](CCCN=C(N)N)C(=O)N[C@@H](Cc1ccccc1)C(N)=O | – | – | – | – | – | – | – | – | – | – | 97.9% | – | – | – | – | – | – | – | – | – | – |
| CN1C(=O)CNC(=O)[C@H](N[C@@H](Cc2ccc(O)cc2)C(=O)O)CCCC/C=C/CC[C@@H](C(=O)N2CCC[C@H]2C(=O)N[C@@H](CCC(N)=O)C(=O)N[C@@H](CCCNC(=N)N)C(=O)N[C@@H](Cc2ccccc2)C(N)=O)NC(=O)[C@@H]1Cc1ccccc1 | – | – | 1.2 nM | – | – | 125% | – | 13.4 nM | 132 nM | 9770 nM | 91.9% | – | 2.26 h | 73.8% | 84.6% | 1.01 h | – | 100% | inactive | 92.1% | MPE [21]: 91.9%; MPE [22]: 80.3%; MPE [23]: 69%; Time [24]: 360 min; MPE [25]: 42.3% |
| CN1C(=O)CNC(=O)[C@H](N[C@@H](Cc2ccc(O)cc2)C(=O)O)CCCC/C=C\CC[C@@H](C(=O)N2CCC[C@H]2C(=O)N[C@@H](CCC(N)=O)C(=O)N[C@@H](CCCNC(=N)N)C(=O)N[C@@H](Cc2ccccc2)C(N)=O)NC(=O)[C@@H]1Cc1ccccc1 | – | – | 92.3 nM | – | – | 88.6% | – | 58.2 nM | 503 nM | 1080 nM | 105% | – | 1.95 h | 97.5% | 109% | 0.625 h | – | 128% | inactive | 93.7% | MPE [21]: 93%; MPE [22]: 77.4%; MPE [23]: 73.5%; Time [24]: 360 min; MPE [25]: 36% |
